Measurements taken from PubChem BioAssay (NCI).
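96-well plates; 48 h exposure; 5 concentrations. Endpoints by linear interpolation between flanking doses. Not reached: highest tested concentration assigned. Abbreviation: GI50, concentration required for 50% inhibition of growth. TGI is the concentration that stops growth completely.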

How the values were obtained:
Experiment in all cases: DTP human tumour cell line panel, 48 h
[1] = system: MDA-MB-468 breast
[2] = system: CAKI-1 renal
[3] = system: MOLT-4 leukemia
[4] = system: SK-MEL-5 melanoma
[5] = system: HS 578T breast
[6] = system: CCRF-CEM leukemia
[7] = system: SK-OV-3 ovarian
[8] = system: LOX IMVI melanoma
[9] = system: K-562 leukemia
[10] = system: SF-268 CNS
[11] = system: IGROV1 ovarian
[12] = system: UACC-62 melanoma
[13] = system: ACHN renal
[14] = system: NCI-H23 lung
[15] = system: NCI-H522 lung
[16] = system: SN12C renal
[17] = system: OVCAR-5 ovarian
[18] = system: HT29 colon
[19] = system: MDA-MB-435
[20] = system: U251 CNS
[21] = system: RXF 393 renal
[22] = system: UACC-257 melanoma
[23] = system: A549 NSCLC
[24] = system: NCI-H460 lung
[25] = system: EKVX NSCLC
[26] = system: T-47D breast
[27] = system: OVCAR-4 ovarian
[28] = system: A498 renal
[29] = system: BT-549 breast
[30] = system: MALME-3M melanoma
[31] = system: KM12 colon
[32] = system: NCI-H226 lung
[33] = system: MCF7 breast
[34] = system: SK-MEL-2 melanoma
[35] = system: RPMI-8226 leukemia
[36] = system: M14 melanoma
[37] = system: COLO 205 colon
[38] = system: HCC-2998 colon
[39] = system: SR leukemia
[40] = system: HCT-15 colon
[41] = system: PC-3 prostate
[42] = system: HL-60(TB) leukemia
[43] = system: SK-MEL-28 melanoma
[44] = system: 786-0 renal
[45] = system: HOP-62 NSCLC
[46] = system: SF-539 CNS
[47] = system: HCT-116 colon
[48] = system: MDA-MB-231 breast
[49] = system: TK-10 renal
[50] = system: DU-145 prostate
[51] = system: OVCAR-8 ovarian
[52] = system: SW-620 colon
[53] = system: HOP-92 NSCLC
[54] = system: SF-295 CNS
[55] = system: OVCAR-3 ovarian
[56] = system: UO-31 renal
[57] = system: SNB-19 CNS
[58] = system: SNB-75 CNS

SMILES: C=C1CC[C@@H]2[C@]3(C)COC(c4cn[nH]c4-c4ccccc4)O[C@@H]3CC[C@@]2(C)[C@@H]1C/C=C1/C(=O)OCC1O (stereo partly specified)
- GI50 [1]: 9 µM
- TGI [1]: 32.6 µM
- GI50 [2]: 11.6 µM
- TGI [2]: 32.2 µM
- GI50 [3]: 3.83 µM
- TGI [3]: 54.5 µM
- GI50 [4]: 12.4 µM
- TGI [4]: 24.8 µM
- GI50 [5]: 9.81 µM
- TGI [5]: 54.7 µM
- GI50 [6]: 4.83 µM
- TGI [6]: 42.5 µM
- GI50 [7]: 22 µM
- TGI [7]: 63.5 µM
- GI50 [8]: 10.9 µM
- TGI [8]: 25 µM
- GI50 [9]: 12.8 µM
- TGI [9]: > 100 µM
- GI50 [10]: 18.5 µM
- TGI [10]: 75.4 µM
- GI50 [11]: 17 µM
- TGI [11]: 42.8 µM
- GI50 [12]: 13.5 µM
- TGI [12]: 28.7 µM
- GI50 [13]: 17.6 µM
- TGI [13]: 69.1 µM
- GI50 [14]: 13.6 µM
- TGI [14]: 26.5 µM
- GI50 [15]: 14.1 µM
- TGI [15]: 29.8 µM
- GI50 [16]: 22 µM
- TGI [16]: 70 µM
- GI50 [17]: 19.2 µM
- TGI [17]: 37.7 µM
- GI50 [18]: 15.4 µM
- TGI [18]: 32.7 µM
- GI50 [19]: 13.5 µM
- TGI [19]: 29.8 µM
- GI50 [20]: 14.3 µM
- TGI [20]: 28.6 µM
- GI50 [21]: 8.5 µM
- TGI [21]: 21.7 µM
- GI50 [22]: 15.6 µM
- TGI [22]: 36.1 µM
- GI50 [23]: 17.3 µM
- TGI [23]: 51.8 µM
- GI50 [24]: 15.3 µM
- TGI [24]: 32.3 µM
- GI50 [25]: 14.5 µM
- TGI [25]: 32.7 µM
- GI50 [26]: 20.2 µM
- TGI [26]: > 100 µM
- GI50 [27]: 15.2 µM
- TGI [27]: 52 µM
- GI50 [28]: 30.9 µM
- TGI [28]: > 100 µM
- GI50 [29]: 15.2 µM
- TGI [29]: 43.3 µM
- GI50 [30]: 13.2 µM
- TGI [30]: 30.5 µM
- GI50 [31]: 11.3 µM
- TGI [31]: 54.9 µM
- GI50 [32]: 16.1 µM
- TGI [32]: 37.8 µM
- GI50 [33]: 10.5 µM
- TGI [33]: 34.9 µM
- GI50 [34]: 14.8 µM
- TGI [34]: 28.7 µM
- GI50 [35]: 8.39 µM
- TGI [35]: 93.8 µM
- GI50 [36]: 14.4 µM
- TGI [36]: 28.2 µM
- GI50 [37]: 15 µM
- TGI [37]: 28.2 µM
- GI50 [38]: 15.8 µM
- TGI [38]: 29.3 µM
- GI50 [39]: 21.2 µM
- TGI [39]: > 100 µM
- GI50 [40]: 13.2 µM
- TGI [40]: 27.2 µM
- GI50 [41]: 12.2 µM
- TGI [41]: > 100 µM
- GI50 [42]: 13.3 µM
- TGI [42]: 67.5 µM
- GI50 [43]: 13.7 µM
- TGI [43]: 26.8 µM
- GI50 [44]: 18.8 µM
- TGI [44]: 43 µM
- GI50 [45]: 16.1 µM
- TGI [45]: 35.6 µM
- GI50 [46]: 15.6 µM
- TGI [46]: 30.3 µM
- GI50 [47]: 12.2 µM
- TGI [47]: 32.2 µM
- GI50 [48]: 15.8 µM
- TGI [48]: 32.8 µM
- GI50 [49]: 20.2 µM
- TGI [49]: 51.7 µM
- GI50 [50]: 13.8 µM
- TGI [50]: 35.4 µM
- GI50 [51]: 18 µM
- TGI [51]: 49.6 µM
- GI50 [52]: 14.4 µM
- TGI [52]: 33.3 µM
- GI50 [53]: 9.14 µM
- TGI [53]: 30.6 µM
- GI50 [54]: 15.4 µM
- TGI [54]: 30.5 µM
- GI50 [55]: 11.1 µM
- TGI [55]: 37.5 µM
- GI50 [56]: 11.5 µM
- TGI [56]: 28 µM
- GI50 [57]: 15 µM
- TGI [57]: 28.5 µM
- GI50 [58]: 10.4 µM
- TGI [58]: 35.1 µM
